Test: NaBH₄ hydrolysis half-life vs. pH
Assay type: physicochemical
Conditions: for HALF-LIFE: hydrolysis
Procedure: The pH flow profile becomes significant when related to the hydrolysis rate of the NaBH₄. Referring to the Table set forth below, the half-life of NaBH₄ is 3000 times longer at a pH of 6.0 compared to a pH of 2.5. Therefore, if the BOROL solution is added to a process stream having a pH of 2.5, the extent of the hydrolysis of the NaBH₄ is greater than if the BOROL solution and NaOH are added first to said process stream having a pH of 6.2 and the pH of said process stream is increased to 13.0, where the rate of hydrolysis of NaBH₄ is very slow (42.6 days). TABLE
TEMPERATURE = 25°C (77°F) LOG₁₀ (t½ ) = pH - (0.034 T - 1.92) [formula] t = MINUTES T = °K

Structure (SMILES): [BH4-].[Na+] [NaBH₄, sodium borohydride]
- HALF-LIFE (pH 2.5, 25°C (77°F)): 2e-06 min
- HALF-LIFE (pH 4.0, 25°C (77°F)): 6.17e-05 min
- HALF-LIFE (pH 5.0, 25°C (77°F)): 0.000617 min
- HALF-LIFE (pH 5.5, 25°C (77°F)): 0.002 min
- HALF-LIFE (pH 6.0, 25°C (77°F)): 0.00617 min
- HALF-LIFE (pH 6.5, 25°C (77°F)): 0.02 min
- HALF-LIFE (pH 7.0, 25°C (77°F)): 0.0617 min
- HALF-LIFE (pH 8.0, 25°C (77°F)): 0.613 min
- HALF-LIFE (pH 9.0, 25°C (77°F)): 6.1 min
- HALF-LIFE (pH 10.0, 25°C (77°F)): 61 min
- HALF-LIFE (pH 12.0, 25°C (77°F)): 6190 min
- HALF-LIFE (pH 13.0, 25°C (77°F)): 61300 min
- half-life at a pH of 6.0 compared to a pH of 2.5 (ratio of hydrolysis half-lives, pH 6.0 vs pH 2.5): 3000 times longer

Reference: patent EP0377521B1, “High yield sodium hydrosulfite generation” (MORTON INTERNATIONAL, INC., priority 1989, dated 1990)
